Experimental data: article PMC10761937, “Functional engineering of human iPSC‐derived parasympathetic neurons enhances responsiveness to gastrointestinal hormones” (FEBS Open Bio, 2023)

Tested on: GLP1R‐neurons
Test: MEA recording of neuronal firing, GLP1R‐neurons
Type: cell-based, human
Settings: 10 nM GLP1; day 27; 0 nM n = 31 electrodes, 10 nM n = 34 electrodes; 5 min before and after ligand addition
Protocol: Before initiating differentiation, the iPSCs (1–2 × 10^5 cells·cm^−2; Cell lines and cell culture section) were transferred to 6‐well plates (Corning, Inc., Corning, NY, USA) coated with 2‐methacryloyloxyethyl phosphorylcholine (MPC) polymer (Lipidure CM5206E; NOF, Tokyo, Japan). The cells were maintained in mTeSR1 cGMP medium containing 10 μM Y‐27632 (Fujifilm Wako Pure Chemical Industries) for 2 or 3 days to form embryoid body (EBs) in a rotary shaker at 95 r.p.m. (OS‐762RC; Optime, Tokyo, Japan). Subsequently, iPSCs were differentiated into neural crest cells (NCCs), as previously reported. Briefly, NCCs were induced from Ebs using knockout serum replacement (KSR) medium and N2 medium with graded addition of nerve growth factors and signaling factors. KSR medium was composed of DMEM‐F12 (Fujifilm Wako Pure Chemical Industries), 20% KSR (Thermo Fisher Scientific), 1% NEAA, 1% monothioglycerol (Fujifilm Wako Pure Chemical Industries), and 1% P/S. N2 medium consisted of DMEM‐F12, 1% N2 supplement (Fujifilm Wako Pure Chemical Industries), 1% NEAA, and 1% P/S. When EB formation was considered day 0 of induction, the medium was changed at days 2, 5, 7, 9, and 12. […]

## GLP1: GLP1 (4280‐v; Peptide Institute, Inc.); GLP1 (7–37) in Ca2+ imaging (HAEGTFTSDVSSYLEGQAAKEFIAWLVKGRG; Glucagon-like peptide 1(7-37); UniProt P01275 98-128, looked up)
  Change rate of firing frequency: increased the change rate of firing frequency
